Where “and” joins values, the source holds several entries; their conditions need not be identical. Identical values can stand only once. Inconclusive results and toxic doses are left out.
Test system: nude mice, LOX melanoma ip, survival T/C
Test: NCI In Vivo Anticancer Drug Screen. Data for tumor model Human Amelanotic Melanoma (LOX) (intraperitoneal) in NU/NU BALB/C (nude) mice
Settings: endpoint: median survival time, schedule: Q04DX003 (ip), higher = longer survival
Description: The antitumor activity of compounds was measured in mice bearing transplantable tumors. Survival or tumor size were measured and the results are expressed as the measurement made in the treated group (T) divided by the measurement made in the vehicle treated control group (C). The tumor model used in this assay is Human Amelanotic Melanoma (LOX) (intraperitoneal) in NU/NU BALB/C (nude) mice

[1] = dose: 75.0 mg/kg/injection, vehicle: other
[2] = dose: 150.0 mg/kg/injection, vehicle: other
[3] = dose: 150.0 mg/kg/injection, vehicle: saline with Tween-80
[4] = dose: 300.0 mg/kg/injection, vehicle: saline with Tween-80
[5] = dose: 50.0 mg/kg/injection, vehicle: Klucel (hydroxypropylcellulose) (HPC)
[6] = dose: 100.0 mg/kg/injection, vehicle: Klucel (hydroxypropylcellulose) (HPC)

Cc1ccccc1N=C(c1ccccc1)C1C(=O)c2ccccc2C1=O
T/C (dose: 75.0 mg/kg/injection, vehicle: DMSO): 101 % of control
T/C [1]: 105 % of control
T/C (dose: 150.0 mg/kg/injection, vehicle: DMSO): 109 % of control
T/C [2]: 93 % of control
T/C (dose: 300.0 mg/kg/injection, vehicle: DMSO): 101 % of control
T/C (dose: 300.0 mg/kg/injection, vehicle: other): 103 % of control
T/C (dose: 600.0 mg/kg/injection, vehicle: DMSO): 103 % of control
T/C (dose: 600.0 mg/kg/injection, vehicle: other): 103 % of control
T/C (dose: 1200.0 mg/kg/injection, vehicle: DMSO): 99 % of control
T/C (dose: 1200.0 mg/kg/injection, vehicle: other): 102 % of control

CCN(CC)c1ccc2[nH]c3c(C(N)=O)cc(=O)c(=O)c=3oc2c1
T/C [3]: 110 % of control
T/C [4]: 96 % of control

Cc1nc(C(Cl)(Cl)Cl)[nH]c(=O)c1SCCO
T/C (dose: 75.0 mg/kg/injection, vehicle: distilled water + Tween-80 + alcohol): 102 % of control
T/C (dose: 150.0 mg/kg/injection, vehicle: distilled water + Tween-80 + alcohol): 116 % of control
T/C (dose: 300.0 mg/kg/injection, vehicle: distilled water + Tween-80 + alcohol): 101 % of control
T/C (dose: 600.0 mg/kg/injection, vehicle: distilled water + Tween-80 + alcohol): 117 % of control

O=C(/C=C/c1cccnc1)/C=C/c1cccnc1
T/C (dose: 6.25 mg/kg/injection, vehicle: Klucel (hydroxypropylcellulose) (HPC)): 104 % of control
T/C (dose: 12.5 mg/kg/injection, vehicle: Klucel (hydroxypropylcellulose) (HPC)): 105 % of control
T/C (dose: 25.0 mg/kg/injection, vehicle: Klucel (hydroxypropylcellulose) (HPC)): 111 % of control
T/C [5]: 116 % of control
T/C [6]: 88 % of control

CCOC(=O)/C=C/C(=O)N1CCN(C(=O)/C=C/C(=O)OCC)C(C)C1 (stereo not drawn)
T/C (dose: 75.0 mg/kg/injection, vehicle: Klucel (hydroxypropylcellulose) (HPC)): 117 % of control
T/C (dose: 150.0 mg/kg/injection, vehicle: Klucel (hydroxypropylcellulose) (HPC)): 109 % of control
T/C (dose: 300.0 mg/kg/injection, vehicle: Klucel (hydroxypropylcellulose) (HPC)): 108 % of control
T/C (dose: 600.0 mg/kg/injection, vehicle: Klucel (hydroxypropylcellulose) (HPC)): 116 % of control

COc1c(O)cc2c(c1OC)-c1ccc(SC)c(=O)cc1C(NC(C)=O)CC2 (stereo not drawn)
T/C (dose: 4.0 mg/kg/injection, vehicle: other): 114 % of control
T/C (dose: 5.0 mg/kg/injection, vehicle: Klucel (hydroxypropylcellulose) (HPC)): 151 % of control and 252 % of control
T/C (dose: 5.9 mg/kg/injection, vehicle: other): 111 % of control and 116 % of control
T/C (dose: 8.9 mg/kg/injection, vehicle: other): 117 % of control
T/C (dose: 10.0 mg/kg/injection, vehicle: Klucel (hydroxypropylcellulose) (HPC)): 151 % of control and 305 % of control
T/C (dose: 20.0 mg/kg/injection, vehicle: other): 151 % of control and 156 % of control

CN(C=O)C(C(=O)Nc1cccc2c(OC(=O)C(N(C)C=O)(N(C)C=O)N(C)C=O)c(N=Nc3ccc(S(=O)(=O)Nc4nccs4)cc3)cc(N=Nc3ccc(S(=O)(=O)Nc4nccs4)cc3)c12)(N(C)C=O)N(C)C=O (tested in a mixture with another compound)
T/C (dose: 75.0 mg/kg/injection, vehicle: saline with Tween-80): 101 % of control
T/C [3]: 99 % of control
T/C [4]: 89 % of control
T/C (dose: 600.0 mg/kg/injection, vehicle: saline with Tween-80): 95 % of control
T/C (dose: 1200.0 mg/kg/injection, vehicle: saline with Tween-80): 93 % of control

CCOC(=O)Nc1cc(NC(C)/C(=N/O)c2ccccc2)c([N+](=O)[O-])c(N)n1 (stereo not drawn)
T/C [5]: 97 % of control
T/C (dose: 51.84 mg/kg/injection, vehicle: Klucel (hydroxypropylcellulose) (HPC)): 109 % of control
T/C (dose: 86.4 mg/kg/injection, vehicle: Klucel (hydroxypropylcellulose) (HPC)): 104 % of control
T/C (dose: 144.0 mg/kg/injection, vehicle: Klucel (hydroxypropylcellulose) (HPC)): 89 % of control
T/C (dose: 240.0 mg/kg/injection, vehicle: Klucel (hydroxypropylcellulose) (HPC)): 101 % of control

C/C(=N\NC(=S)N1CCN(c2ccccn2)CC1)c1ccccn1
T/C (dose: 10.0 mg/kg/injection, vehicle: water): 89 % of control
T/C (dose: 20.0 mg/kg/injection, vehicle: water): 95 % of control
T/C (dose: 40.0 mg/kg/injection, vehicle: water): 94 % of control
T/C (dose: 80.0 mg/kg/injection, vehicle: water): 97 % of control

O=S(=O)(O)c1cc(N=C=S)ccc1/C=C/c1ccc(N=C=S)cc1S(=O)(=O)O
T/C (dose: 3.75 mg/kg/injection, vehicle: saline): 103 % of control
T/C (dose: 7.5 mg/kg/injection, vehicle: saline): 104 % of control
T/C (dose: 15.0 mg/kg/injection, vehicle: saline): 90 % of control
T/C (dose: 30.0 mg/kg/injection, vehicle: saline): 94 % of control

NC(=S)c1ncn(C2OC(COC=O)C(OC=O)C2OC=O)c1NC=O (stereo not drawn)
T/C (dose: 50.0 mg/kg/injection, vehicle: saline with Tween-80): 109 % of control
T/C (dose: 200.0 mg/kg/injection, vehicle: saline with Tween-80): 172 % of control
T/C (dose: 400.0 mg/kg/injection, vehicle: saline with Tween-80): 188 % of control

O=C1CN(c2ccccc2)C(=O)C1C(=O)Nc1ccc(Cl)c(Cl)c1 (stereo not drawn)
T/C (dose: 120.0 mg/kg/injection, vehicle: saline with Tween-80): 115 % of control

CN1C2C=CC(=O)C1C1C(=O)N(c3ccccc3)C(=O)C12 (stereo not drawn)
T/C [5]: 100 % of control
T/C [6]: 96 % of control
T/C (dose: 200.0 mg/kg/injection, vehicle: Klucel (hydroxypropylcellulose) (HPC)): 99 % of control
T/C (dose: 400.0 mg/kg/injection, vehicle: Klucel (hydroxypropylcellulose) (HPC)): 100 % of control

Nc1n[nH]c2ccccc12
T/C [1]: 107 % of control
T/C [2]: 98 % of control

Cc1cc(O)c2c(c1O)C(=O)C13C(=C2O)C(=O)C2C(O)C1C1C(O)C3C(=O)C3=C(O)c4c(O)cc(C)c(O)c4C(=O)C321 (stereo not drawn)
T/C (dose: 6.25 mg/kg/injection, vehicle: saline with Tween-80): 114 % of control

NC(CCC(=O)NC(CS)C(=O)NCC(=O)O)C(=O)O (stereo not drawn)
T/C (dose: 75.0 mg/kg/injection, vehicle: saline): 100 % of control
T/C (dose: 150.0 mg/kg/injection, vehicle: saline): 100 % of control
T/C (dose: 259.0 mg/kg/injection, vehicle: saline): 108 % of control
T/C (dose: 300.0 mg/kg/injection, vehicle: saline): 107 % of control
T/C (dose: 432.0 mg/kg/injection, vehicle: saline): 108 % of control
T/C (dose: 600.0 mg/kg/injection, vehicle: saline): 104 % of control
T/C (dose: 720.0 mg/kg/injection, vehicle: saline): 93 % of control
T/C (dose: 1200.0 mg/kg/injection, vehicle: saline): 95 % of control

From PubChem BioAssay AID280 (DTP/NCI, 2004)
